From patent publication US12252524B2, “GIP/GLP1 co-agonist compounds” (Eli Lilly and Company, priority 2018, dated 2025)
Numbered stars: 1 amine (or outer) side, 2 acyl side, 3 side chain; on linkers, the order of the positions; unused ones are H or OH. Square brackets hold non-standard residues; d marks the D form. Side chains are listed from the residue outwards. Peptide text beside a SMILES is read from it. * marks the point of attachment. C20 diacid = O=C(O)CCCCCCCCCCCCCCCCCCC(=O)*; C18 diacid = O=C(O)CCCCCCCCCCCCCCCCC(=O)*; αMePhe(2-F) = C[C@](N)(Cc1ccccc1F)C(=O)O; γGlu = O=C(O)[C@H](CCC(=O)[*:2])N[*:1]; αMeL = CC(C)C[C@](C)(N)C(=O)O; Dab = NCC[C@H](N)C(=O)O; Dap = NC[C@H](N)C(=O)O; AEEA = NCCOCCOCC(=O)O; Aib = CC(C)(N)C(=O)O

Columns and labels:
[1] = target: T1, human Gcg receptor (Homo sapiens, UniProt P47871); test: [125I]-Glucagon binding (SPA), human Gcg receptor; conditions: read-out: hGLcgR Ki, nM (SEM, n)
T1 construct: expressed in transfected cells; crude membranes
In short: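 Crude membranes from cells expressing the receptor, prepared by hypotonic lysis in 50 mM Tris HCl pH 7.5 with protease inhibitors, homogenization and differential centrifugation, were used in a WGA-bead SPA. Binding buffer: 25 mM HEPES pH 7.4, 2.5 mM CaCl2, 1 mM MgCl2, bacitracin, Tween-20.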

[2] = target: T2, human GIP receptor (Homo sapiens, UniProt P48546); test: [125I]-GIP binding (SPA), human GIP receptor; conditions: read-out: hGIPR Ki, nM (SEM, n)
T2 construct: expressed in transfected cells; crude membranes
T2 sequence (P48546 22-466): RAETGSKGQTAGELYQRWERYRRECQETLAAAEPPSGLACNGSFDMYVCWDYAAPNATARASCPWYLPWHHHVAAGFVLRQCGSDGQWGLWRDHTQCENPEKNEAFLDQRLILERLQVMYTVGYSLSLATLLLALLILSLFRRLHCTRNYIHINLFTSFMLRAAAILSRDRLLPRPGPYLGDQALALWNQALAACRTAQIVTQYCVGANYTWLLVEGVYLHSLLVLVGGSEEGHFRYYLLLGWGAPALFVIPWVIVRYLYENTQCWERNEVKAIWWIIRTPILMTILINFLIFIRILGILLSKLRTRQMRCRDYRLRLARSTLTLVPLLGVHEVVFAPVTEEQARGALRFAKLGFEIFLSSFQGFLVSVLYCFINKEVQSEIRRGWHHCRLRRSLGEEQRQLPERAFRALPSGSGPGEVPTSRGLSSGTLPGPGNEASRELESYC

[3] = target: human GLP-1 receptor (GLP-1R) (Homo sapiens, UniProt P43220); test: cAMP pharmacological functional assay in presence of casein, hGLP-1R; type: cell-based; conditions: HEK293 cells expressing hGLP-1R, 0.1% Casein, geometric mean; read-out: hGLP1R cAMP Rel EC50 nM (SEM, n)
[4] = target: T3, gastric inhibitory peptide receptor (GIPR) (Homo sapiens, UniProt P48546); test: cAMP pharmacological functional assay in presence of casein, hGIPR; type: cell-based; conditions: HEK293 cells expressing hGIPR, 0.1% Casein, geometric mean; read-out: hGIPR cAMP Rel EC50 nM (SEM, n)
T3 sequence (P48546 22-466): T2 sequence (P48546 22-466)

[5] = target: human GLP-1R (Homo sapiens, UniProt P43220); test: [125I]-GLP-1 binding (SPA), human GLP-1 receptor; set-up: expressed in transfected cells; crude membranes; conditions: read-out: hGLP1R Ki, (nM) (SEM, n)
In short: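 Membranes: hypotonic lysis (50 mM Tris HCl, pH 7.5, protease inhibitors), Potter-Elvehjem homogenization, high-speed pellet (35000×g 1 h or 25000×g 30 min, 4° C.). Buffer: 25 mM HEPES pH 7.4, 2.5 mM CaCl2, 1 mM MgCl2. Four-parameter IC50 fit; Ki as geometric mean ± SEM.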

Chain of human GLP-1R (P43220 24-463): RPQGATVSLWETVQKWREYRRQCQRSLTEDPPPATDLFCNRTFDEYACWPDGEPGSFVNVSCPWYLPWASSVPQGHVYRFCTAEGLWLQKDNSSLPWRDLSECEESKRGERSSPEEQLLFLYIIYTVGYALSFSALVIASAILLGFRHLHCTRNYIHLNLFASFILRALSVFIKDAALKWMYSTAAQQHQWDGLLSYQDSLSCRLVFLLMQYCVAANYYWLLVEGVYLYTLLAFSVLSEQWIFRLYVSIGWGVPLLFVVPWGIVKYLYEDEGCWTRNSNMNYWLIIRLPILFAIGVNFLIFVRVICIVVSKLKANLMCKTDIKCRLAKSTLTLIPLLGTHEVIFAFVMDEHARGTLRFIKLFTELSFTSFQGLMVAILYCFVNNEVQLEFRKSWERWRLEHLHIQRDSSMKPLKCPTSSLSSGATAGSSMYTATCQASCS
Chain of human GLP-1 receptor (GLP-1R) (P43220 24-463): as above
T1 sequence (P47871 26-477): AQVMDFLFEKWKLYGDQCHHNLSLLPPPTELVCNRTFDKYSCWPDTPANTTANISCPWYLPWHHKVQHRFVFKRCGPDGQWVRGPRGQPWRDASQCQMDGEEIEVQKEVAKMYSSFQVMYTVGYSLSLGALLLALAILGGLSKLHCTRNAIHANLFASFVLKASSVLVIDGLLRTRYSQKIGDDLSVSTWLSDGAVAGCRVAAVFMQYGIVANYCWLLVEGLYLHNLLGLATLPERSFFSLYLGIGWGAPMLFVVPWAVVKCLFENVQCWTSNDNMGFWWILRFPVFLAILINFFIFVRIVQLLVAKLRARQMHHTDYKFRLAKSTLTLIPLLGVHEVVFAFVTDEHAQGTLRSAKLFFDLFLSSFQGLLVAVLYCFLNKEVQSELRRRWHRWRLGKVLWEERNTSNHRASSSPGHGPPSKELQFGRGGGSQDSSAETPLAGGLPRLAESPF

SMILES | Ki [1] [nM] | Ki [2] [nM] | EC50 [3] [nM] | EC50 [4] [nM] | Ki [5] [nM]
CC[C@H](C)[C@H](NC(=O)[C@H](CC(C)C)NC(=O)[C@H](Cc1ccc(O)cc1)NC(=O)[C@@H](CCC(=O)O)NC(=O)[C@@H](NC(=O)[C@H](Cc1ccccc1)NC(=O)[C@H](CCC(=O)O)NC(=O)C(C)(C)NC(=O)[C@H](CCC(N)=O)NC(=O)[C@H](C)NC(=O)[C@H](CCCCNC(=O)COCCOCCNC(=O)COCCOCCNC(=O)[C@@H](N)CCCCNC(=O)CCCCCCCCCCCCCCCCCCC(=O)O)NC(=O)[C@H](CCC(=O)O)NC(=O)[C@H](CC(=O)O)NC(=O)[C@H](CC(C)C)NC(=O)C(C)(CC(C)C)NC(=O)[C@@H](NC(=O)[C@H](CO)NC(=O)[C@H](Cc1ccc(O)cc1)NC(=O)[C@H](CC(=O)O)NC(=O)[C@H](CO)NC(=O)[C@@H](NC(=O)C(C)(Cc1ccccc1F)NC(=O)[C@@H](NC(=O)CNC(=O)[C@H](CCC(=O)O)NC(=O)C(C)(C)NC(=O)[C@@H](N)Cc1ccc(O)cc1)[C@@H](C)O)[C@@H](C)O)[C@@H](C)CC)[C@@H](C)CC)C(=O)N[C@@H](CCC(=O)O)C(=O)NCC(=O)NCC(=O)N1CCC[C@H]1C(=O)N[C@@H](CO)C(=O)N[C@@H](CO)C(=O)NCC(=O)N[C@@H](C)C(=O)N1CCC[C@H]1C(=O)N1CCC[C@H]1C(=O)N1CCC[C@H]1C(=O)N[C@@H](CO)C(N)=O (stereo partly shown) [Example 216] | 45.2 | 0.0559 | 0.0327 | 0.0401 | 2.34
CC[C@H](C)[C@H](NC(=O)[C@H](CC(C)C)NC(=O)[C@H](Cc1ccc(O)cc1)NC(=O)[C@@H](CCC(=O)O)NC(=O)[C@@H](NC(=O)[C@H](Cc1ccccc1)NC(=O)[C@H](CCC(=O)O)NC(=O)C(C)(C)NC(=O)[C@H](CCC(N)=O)NC(=O)[C@H](C)NC(=O)[C@H](CCCCNC(=O)COCCOCCNC(=O)COCCOCCNC(=O)CC[C@H](NC(=O)CCCCCCCCCCCCCCCCCCC(=O)O)C(=O)O)NC(=O)[C@H](CCN)NC(=O)[C@H](CC(=O)O)NC(=O)[C@H](CC(C)C)NC(=O)[C@](C)(CC(C)C)NC(=O)[C@@H](NC(=O)[C@H](CO)NC(=O)[C@H](Cc1ccc(O)cc1)NC(=O)[C@H](CC(=O)O)NC(=O)[C@H](CO)NC(=O)[C@@H](NC(=O)[C@](C)(Cc1ccccc1F)NC(=O)[C@@H](NC(=O)CNC(=O)[C@H](CCC(=O)O)NC(=O)C(C)(C)NC(=O)[C@@H](N)Cc1ccc(O)cc1)[C@@H](C)O)[C@@H](C)O)[C@@H](C)CC)[C@@H](C)CC)C(=O)N[C@@H](CCC(=O)O)C(=O)NCC(=O)NCC(=O)N1CCC[C@H]1C(=O)N[C@@H](CO)C(=O)N[C@@H](CO)C(=O)NCC(=O)N[C@@H](C)C(=O)N1CCC[C@H]1C(=O)N1CCC[C@H]1C(=O)N1CCC[C@H]1C(=O)N[C@@H](CO)C(N)=O [Example 217] (H-Y[Aib]EGT[αMePhe(2-F)]TSDYSI[αMeL]LD[Dab]K([AEEA-AEEA-γGlu-C20 diacid])AQ[Aib]EFI[dE]YLIEGGPSSGAPPPS-NH2) | 516 | 0.0376 | 0.0383 | 0.0563 | 2.02
CC[C@H](C)[C@H](NC(=O)[C@H](CC(C)C)NC(=O)[C@H](Cc1ccc(O)cc1)NC(=O)[C@@H](CCC(=O)O)NC(=O)[C@@H](NC(=O)[C@H](Cc1ccccc1)NC(=O)[C@H](CCC(=O)O)NC(=O)C(C)(C)NC(=O)[C@H](CCC(N)=O)NC(=O)[C@H](C)NC(=O)[C@H](CCCCNC(=O)COCCOCCNC(=O)COCCOCCNC(=O)CC[C@H](NC(=O)CCCCCCCCCCCCCCCCCCC(=O)O)C(=O)O)NC(=O)[C@H](CN)NC(=O)[C@H](CC(=O)O)NC(=O)[C@H](CC(C)C)NC(=O)[C@](C)(CC(C)C)NC(=O)[C@@H](NC(=O)[C@H](CO)NC(=O)[C@H](Cc1ccc(O)cc1)NC(=O)[C@H](CC(=O)O)NC(=O)[C@H](CO)NC(=O)[C@@H](NC(=O)[C@](C)(Cc1ccccc1F)NC(=O)[C@@H](NC(=O)CNC(=O)[C@H](CCC(=O)O)NC(=O)C(C)(C)NC(=O)[C@@H](N)Cc1ccc(O)cc1)[C@@H](C)O)[C@@H](C)O)[C@@H](C)CC)[C@@H](C)CC)C(=O)N[C@@H](CCC(=O)O)C(=O)NCC(=O)NCC(=O)N1CCC[C@H]1C(=O)N[C@@H](CO)C(=O)N[C@@H](CO)C(=O)NCC(=O)N[C@@H](C)C(=O)N1CCC[C@H]1C(=O)N1CCC[C@H]1C(=O)N1CCC[C@H]1C(=O)N[C@@H](CO)C(N)=O [Example 218] (H-Y[Aib]EGT[αMePhe(2-F)]TSDYSI[αMeL]LD[Dap]K([AEEA-AEEA-γGlu-C20 diacid])AQ[Aib]EFI[dE]YLIEGGPSSGAPPPS-NH2) | 270 | 0.0593 | 0.0423 | 0.0413 | 2.54
CC[C@H](C)[C@H](NC(=O)[C@H](CC(C)C)NC(=O)[C@H](Cc1ccc(O)cc1)NC(=O)[C@@H](CCC(=O)O)NC(=O)[C@@H](NC(=O)[C@H](Cc1ccccc1)NC(=O)[C@H](CCC(=O)O)NC(=O)C(C)(C)NC(=O)[C@H](CCC(N)=O)NC(=O)[C@H](C)NC(=O)[C@H](CCCCNC(=O)COCCOCCNC(=O)COCCOCCNC(=O)CC[C@H](NC(=O)CCCCCCCCCCCCCCCCC(=O)O)C(=O)O)NC(=O)[C@H](CCC(=O)O)NC(=O)[C@H](CC(=O)O)NC(=O)[C@H](CC(C)C)NC(=O)[C@](C)(CC(C)C)NC(=O)[C@@H](NC(=O)[C@H](CO)NC(=O)[C@H](Cc1ccc(O)cc1)NC(=O)[C@H](CC(=O)O)NC(=O)[C@H](CO)NC(=O)[C@@H](NC(=O)[C@](C)(Cc1ccccc1F)NC(=O)[C@@H](NC(=O)CNC(=O)[C@H](CCC(=O)O)NC(=O)C(C)(C)NC(=O)[C@@H](N)Cc1ccc(O)cc1)[C@@H](C)O)[C@@H](C)O)[C@@H](C)CC)[C@@H](C)CC)C(=O)N[C@@H](CCC(=O)O)C(=O)NCC(=O)NCC(=O)N1CCC[C@H]1C(=O)N[C@@H](CO)C(=O)N[C@@H](CO)C(=O)NCC(N)=O [Example 219] (H-Y[Aib]EGT[αMePhe(2-F)]TSDYSI[αMeL]LDEK([AEEA-AEEA-γGlu-C18 diacid])AQ[Aib]EFI[dE]YLIEGGPSSG-NH2) | 373 | 0.0689 | 0.0403 | 0.0341 | 2.01
CC[C@H](C)[C@H](NC(=O)[C@H](CC(C)C)NC(=O)[C@H](Cc1ccc(O)cc1)NC(=O)[C@@H](CCC(=O)O)NC(=O)[C@@H](NC(=O)[C@H](Cc1ccccc1)NC(=O)[C@H](CCC(=O)O)NC(=O)C(C)(C)NC(=O)[C@H](CCC(N)=O)NC(=O)[C@H](C)NC(=O)[C@H](CCCCNC(=O)COCCOCCNC(=O)COCCOCCNC(=O)CC[C@H](NC(=O)CCCCCCCCCCCCCCCCC(=O)O)C(=O)O)NC(=O)[C@H](CCC(=O)O)NC(=O)[C@H](CC(=O)O)NC(=O)[C@H](CC(C)C)NC(=O)[C@](C)(CC(C)C)NC(=O)[C@@H](NC(=O)[C@H](CO)NC(=O)[C@H](Cc1ccc(O)cc1)NC(=O)[C@H](CC(=O)O)NC(=O)[C@H](CO)NC(=O)[C@@H](NC(=O)[C@](C)(Cc1ccccc1F)NC(=O)[C@@H](NC(=O)CNC(=O)[C@H](CCC(=O)O)NC(=O)C(C)(C)NC(=O)[C@@H](N)Cc1ccc(O)cc1)[C@@H](C)O)[C@@H](C)O)[C@@H](C)CC)[C@@H](C)CC)C(=O)N[C@@H](CCC(=O)O)C(=O)NCC(=O)NCC(N)=O [Example 220] (H-Y[Aib]EGT[αMePhe(2-F)]TSDYSI[αMeL]LDEK([AEEA-AEEA-γGlu-C18 diacid])AQ[Aib]EFI[dE]YLIEGG-NH2; N-terminus assumed) | 377 | 0.0919 | 0.0312 | 0.0315 | 2.71
